Measurements: US20090275653A1, “POLYMORPHIC FORMS OF LADOSTIGIL TARTRATE” (priority 2005, published 2009)
Entries after “also recorded” stand apart in the source; their conditions may differ.

Key:
Type in all cases: physicochemical
[1] = Water content (Karl Fischer) and loss on drying (TGA) of the form as obtained; conditions: for Water content: by weight
Procedure: (§1) TGA analysis was performed using a Mettler M3 meter. The weight of the samples was about 10 mg. The samples were scanned at a rate of 10° C./min from 25° C. to 200° C. The oven was constantly purged with nitrogen gas at a flow rate of 40 ml/min. Standard 70 μl alumina crucibles covered by lids with 1 hole were used.
(§2) The water content of ladostigil tartrate was measured by methods known in the art, such Karl Fischer analysis.

[2] = Hygroscopicity study: exposure to 0-100% relative humidity at room temperature (Karl Fischer, TGA, crystal form by XRD)
Excerpt: Form E was placed for 1 week under 0-100% relative humidity at room temperature. Table 1 summarizes the results:
Form F was placed for 14 days under 0-100% relative humidity at room temperature. Table 2 summarizes the results:
Form H was placed for 14 days under 0-100% relative humidity at room temperature. Table 3 summarizes the results:
Form J1 was placed for 9 days under 0-100% relative humidity at room temperature. Table 4 summarizes the results:
Table 5 summarizes the results:
(§3) X-Ray powder diffraction data were obtained by method known in the art using a SCINTAG powder X-Ray diffractometer model X'TRA equipped with a solid state detector. Copper radiation of 1.5418 Å was used. A round aluminum sample holder with round zero background quartz plate, with a cavity of 25(diameter)*0.5(depth) mm was used.
as §1, §2
Crystal form was determined after equilibration of ladostigil tartrate form A for 10 days at various relative humidities at room temperature.
Form A1 was exposed at various humidity conditions at room temperature for 13 days.
Ladostigil tartrate form A1 was exposed to various humidity conditions at room temperature for 14 days. TGA was performed, and the crystal form was analyzed.
A mixture of ladostigil tartrate form A1 and E, containing primarily form A1, was exposed at various humidity conditions at room temperature for 14 days.
Form E was placed for 7 days under 0-100% relative humidity at room temperature. Table 12 summarizes the results:
Form F was placed for 14 days under 0-100% relative humidity at room temperature. Table 14 summarizes the results:
Ladostigil tartrate Form H was exposed for 14 days under 0-100% relative humidity at room temperature. Table 15 summarizes the results:
Crystal ladostigil tartrate Form J1 was placed for 9 days under 0-100% relative humidity at room temperature.

[3] = Effect of heating on polymorph form
Procedure: as §3
The heated sample was analyzed by XRD. Form A1 was obtained.
Various polymorph forms and mixtures thereof were heated. The heating conditions and resulting polymorph forms are described in table 17 below: […]

[4] = Effect of micronization, pressing and grinding (XRD)
Procedure: The effects of micronization, pressing (1 minute at 100 metric tons) and grinding were determined by XRD and the following results were obtained: […]

[5] = pressing 1 minute at 100 metric tons
[6] = 100% RH, equilibration 10 days, room temperature

## carbamic acid, ethylmethyl-, (3R)-2,3-dihydro-3-(2-propynylamino)-1H-inden-5-yl ester, (2R,3R)-2,3-dihydroxybutanedioate (2:1) [Essentially Amorphous Form]
[1]
  Weight loss / loss on drying by TGA: about 5%
  Water content: about 2%

## carbamic acid, ethylmethyl-, (3R)-2,3-dihydro-3-(2-propynylamino)-1H-inden-5-yl ester, (2R,3R)-2,3-dihydroxybutanedioate (2:1) [Form K]
[1]
  Weight loss / loss on drying by TGA: 0.5-0.8%
  Water content: about 0.2%
[2]; from the 9 day study of Form J1, room temperature
  Relative humidity range in which the form is stable: 20-60 % RH

## carbamic acid, ethylmethyl-, (3R)-2,3-dihydro-3-(2-propynylamino)-1H-inden-5-yl ester, (2R,3R)-2,3-dihydroxybutanedioate (2:1) [Form L]
[3]; 60° C. in conventional oven, 2 hours
  Resulting form after heating/drying: polymorphically stable
[1]
  Weight loss / loss on drying by TGA: 2.7-13.8%
  Water content: 0.6-1.4%

## carbamic acid, ethylmethyl-, (3R)-2,3-dihydro-3-(2-propynylamino)-1H-inden-5-yl ester, (2R,3R)-2,3-dihydroxybutanedioate (2:1) [Form A]
[1]
  Weight loss / loss on drying by TGA: about 0.3%
  Water content: about 0.3%
[4]; grinding
  Crystal form after grinding: mixture of Forms A and A1
[4]; [5]
  Crystal form after pressing: mainly to Form A1
  Crystallinity after pressing: lose some extent of crystallinity
[2]; 20% RH, equilibration 10 days, room temperature
  Water content: 0.3%
[2]; 40% RH, equilibration 10 days, room temperature
  Water content: 0.3%
[2]; 60% RH, equilibration 10 days, room temperature
  Water content: 0.3%
[2]; 80% RH, equilibration 10 days, room temperature
  Water content: 0.3%
[2]; [6]
  Crystal Form: stable
  Water content: 0.2%
[2]; conclusion in words
  Hygroscopicity: neither Form A nor Form A1 is hygroscopic; also recorded: non-hygroscopic
[2]; high relative humidity, in words
  Crystal form upon exposure to high relative humidity: does not change crystalline form

## carbamic acid, ethylmethyl-, (3R)-2,3-dihydro-3-(2-propynylamino)-1H-inden-5-yl ester, (2R,3R)-2,3-dihydroxybutanedioate (2:1) [Form C]
[3]; 50° C. under vacuum, 1 hour
  Resulting form after heating/drying: Form C was still detected
[3]; 50° C. under vacuum, 12 hours
  Resulting form after heating/drying: Form B
[3]; 55° C. under vacuum, 17 hours
  Resulting form after heating/drying: Form E
[3]; 55° C., 17 hours
  Resulting form after heating/drying: Form B
[3]; 55° C., 19 hours
  Resulting form after heating/drying: Form B
[1]
  Weight loss / loss on drying by TGA: about 40%
  Water content: about 2%
